Source: patent US9593139B2, “Compositions, methods, and kits comprising platinum compounds associated with a ligand comprising a targeting moiety” (priority 2013, dated 2017)

Legend:
A2780 cells = experiment: MTT cytotoxicity assay, cisplatin-sensitive ovarian cancer cell line; type: cell-based; details: 72 h incubation
Description: (§1) A2780 and A2780CP70 (ovarian cisplatin-sensitive and -resistant) cell lines were obtained from Fox Chase Cancer Center and cultured in RPMI-1640 medium supplemented with 10% fetal bovine serum (FBS) and 1% penicillin/streptomycin.
(§2) The colorimetric MTT assay was used to assess cytotoxicity. In a 96-well plate, 2000 cells per well were seeded in 100 μL growth medium and allowed to attach overnight. The growth media was then aspirated and replaced with 100 μL of growth medium containing varying concentrations of the platinum complexes. Six wells were used per concentration level. After 72 h, the platinum-containing media was aspirated and replaced with 200 μL of RPMI-1640 containing 0.67 mg/mL MTT. The cells were further incubated for 4 h. The MTT solution was removed, and the resulting purple formazan crystals were dissolved in 100 μL of 25:1 mixture of DMSO and aqueous ammonia. The absorbance was measured at 550 nm. The absorbance values were normalized to the Pt-free wells (100% cell viability) and are plotted versus platinum concentration. […] These experiments were repeated at least three times, and the reported IC50 values are the averages of these trials with the error estimated from the resulting standard deviations.

A2780CP70 cells = experiment: MTT cytotoxicity assay, cisplatin-resistant ovarian cancer cell line; type: cell-based; details: for IC50: A2780CP70 (cisplatin-resistant), MTT, 72 h incubation; for R.F. (resistance factor, IC50(resistant)/IC50(sensitive)): A2780CP70 vs A2780, 72 h incubation
Description: as §1, §2

## [Pt(succac)(NH3)2]-r(Fxr)3-CONH2 [Pt-MPP]
A2780 cells
  IC50: 7.5 ± 0.3 µM
A2780CP70 cells
  IC50: 5 ± 1.4 µM
  R.F. (resistance factor, IC50(resistant)/IC50(sensitive)): 0.7±0.2

## N.N.[Cl][Pt][Cl] [cisplatin, cis-diamminedichloroplatinum(II)]
A2780 cells
  IC50: 0.6 ± 0.08 µM
A2780CP70 cells
  IC50: 5.2 ± 1.4 µM
  R.F. (resistance factor, IC50(resistant)/IC50(sensitive)): 8.7 ± 2.6

## [Pt(acac)(NH3)2](SO4)0.5
A2780 cells
  IC50: 13.9 ± 1.9 µM
A2780CP70 cells
  IC50: 122 ± 10 µM
  R.F. (resistance factor, IC50(resistant)/IC50(sensitive)): 8.8 ± 1.4

## O=C1[O][Pt-2]2([NH2+]C3CCCC[C@H]3[NH2+]2)[O]C1=O (stereo partly drawn) [Oxaliplatin, (R,R-1,2-diaminocyclohexane)oxalatoplatinum(II)]
A2780 cells
  IC50: 0.25 µM
A2780CP70 cells
  IC50: 1 µM
  R.F. (resistance factor, IC50(resistant)/IC50(sensitive)): 4.1 ± 0.4
